According to the NIST ThermoML archive (doi:10.1016/j.fluid.2014.10.004):

Legend:
[1] = xn = mol fraction of the nth substance listed; settings: 101.3 kPa, Liquid, Sing-around technique in a fixed-path interferometer
[2] = refractive index (Na D-line) (dimensionless); xn = mol fraction of the nth substance listed; settings: 101.3 kPa, Liquid, Standard Abbe refractometry

ClC(Cl)Cl [trichloromethane] + C[N+](=O)[O-]
x1 = 1
Settings | refractive index, 298.15 K | refractive index, 308.15 K | refractive index, 318.15 K | speed of sound, 298.15 K [m/s] | speed of sound, 308.15 K [m/s] | speed of sound, 318.15 K [m/s]
[1] | – | – | – | 984.42 | 950.45 | 916.63
[2] | 1.44209 | 1.43598 | 1.42986 | – | – | –

C[N+](=O)[O-] [nitromethane] + CC(Cl)(Cl)Cl
x2 = 0
Settings | refractive index, 298.15 K | refractive index, 308.15 K | refractive index, 318.15 K | speed of sound, 298.15 K [m/s] | speed of sound, 308.15 K [m/s] | speed of sound, 318.15 K [m/s]
[1] | – | – | – | 1321.6 | 1281.9 | 1242.5
[2] | 1.37949 | 1.37473 | 1.36995 | – | – | –

C[N+](=O)[O-] [nitromethane] + ClC(Cl)C(Cl)Cl
x2 = 0
Settings | refractive index, 298.15 K | refractive index, 308.15 K | refractive index, 318.15 K | speed of sound, 298.15 K [m/s] | speed of sound, 308.15 K [m/s] | speed of sound, 318.15 K [m/s]
[1] | – | – | – | 1321.2 | 1281.8 | 1242.5
[2] | 1.37946 | 1.37472 | 1.36996 | – | – | –

C[N+](=O)[O-] [nitromethane] + CCCCCCl
x2 = 0
Settings | refractive index, 298.15 K | refractive index, 308.15 K | refractive index, 318.15 K | speed of sound, 298.15 K [m/s] | speed of sound, 308.15 K [m/s] | speed of sound, 318.15 K [m/s]
[1] | – | – | – | 1321.7 | 1282 | 1242.6
[2] | 1.37954 | 1.3747 | 1.36996 | – | – | –

ClC(Cl)C(Cl)Cl [1,1,2,2-tetrachloroethane] + C[N+](=O)[O-]
Settings | refractive index, 298.15 K | refractive index, 308.15 K | refractive index, 318.15 K | speed of sound, 298.15 K [m/s] | speed of sound, 308.15 K [m/s] | speed of sound, 318.15 K [m/s]
[1], x1 = 0.0711 | – | – | – | 1293.1 | 1254.8 | 1216.6
[1], x1 = 0.1888 | – | – | – | 1257.7 | 1220.8 | 1184.5
[1], x1 = 0.2563 | – | – | – | 1241.8 | 1205.8 | 1170
[1], x1 = 0.3464 | – | – | – | 1224.1 | 1189.1 | 1154.2
[1], x1 = 0.4341 | – | – | – | 1209.8 | 1175.4 | 1141.1
[1], x1 = 0.5431 | – | – | – | 1194.8 | 1161.1 | 1127.6
[1], x1 = 0.6654 | – | – | – | 1180.7 | 1147.6 | 1114.7
[1], x1 = 0.8211 | – | – | – | 1165.3 | 1133 | 1100.8
[1], x1 = 0.9285 | – | – | – | 1156.2 | 1124.2 | 1092.3
[1], x1 = 1 | – | – | – | 1150.6 | 1118.7 | 1087
[2], x1 = 0.0711 | 1.39391 | 1.3893 | 1.38479 | – | – | –
[2], x1 = 0.1888 | 1.41442 | 1.4099 | 1.40582 | – | – | –
[2], x1 = 0.2563 | 1.42485 | 1.42025 | 1.4162 | – | – | –
[2], x1 = 0.3464 | 1.43683 | 1.43222 | 1.42805 | – | – | –
[2], x1 = 0.4341 | 1.44721 | 1.4425 | 1.43807 | – | – | –
[2], x1 = 0.5431 | 1.45848 | 1.45366 | 1.44909 | – | – | –
[2], x1 = 0.6654 | 1.46937 | 1.46448 | 1.4596 | – | – | –
[2], x1 = 0.8211 | 1.48094 | 1.47589 | 1.47087 | – | – | –
[2], x1 = 0.9285 | 1.48772 | 1.48262 | 1.47752 | – | – | –
[2], x1 = 1 | 1.49174 | 1.48654 | 1.48137 | – | – | –

C[N+](=O)[O-] [nitromethane] + ClCCCl
Settings | refractive index, 298.15 K | refractive index, 308.15 K | refractive index, 318.15 K | speed of sound, 298.15 K [m/s] | speed of sound, 308.15 K [m/s] | speed of sound, 318.15 K [m/s]
[1], x2 = 0 | – | – | – | 1321.2 | 1281.8 | 1242.5
[1], x2 = 0.0878 | – | – | – | 1298.2 | 1259 | 1220.1
[1], x2 = 0.1939 | – | – | – | 1279 | 1240.3 | 1201.6
[1], x2 = 0.2938 | – | – | – | 1264 | 1225.5 | 1187
[1], x2 = 0.3998 | – | – | – | 1246.1 | 1207.7 | 1169.4
[1], x2 = 0.5028 | – | – | – | 1236 | 1197.7 | 1159.5
[1], x2 = 0.6154 | – | – | – | 1229 | 1190.8 | 1152.5
[1], x2 = 0.7207 | – | – | – | 1218.7 | 1180.5 | 1142.2
[1], x2 = 0.8326 | – | – | – | 1207.6 | 1169.3 | 1131.1
[1], x2 = 0.9404 | – | – | – | 1201.6 | 1163.3 | 1125
[2], x2 = 0 | 1.37952 | 1.37482 | 1.37009 | – | – | –
[2], x2 = 0.1132 | 1.38846 | 1.38351 | 1.37845 | – | – | –
[2], x2 = 0.2235 | 1.39669 | 1.39148 | 1.38609 | – | – | –
[2], x2 = 0.3249 | 1.40379 | 1.39839 | 1.39284 | – | – | –
[2], x2 = 0.4672 | 1.41318 | 1.40777 | 1.40213 | – | – | –
[2], x2 = 0.5586 | 1.4188 | 1.41343 | 1.40781 | – | – | –
[2], x2 = 0.6264 | 1.42279 | 1.41742 | 1.41184 | – | – | –
[2], x2 = 0.7349 | 1.42888 | 1.42345 | 1.41797 | – | – | –
[2], x2 = 0.857 | 1.43522 | 1.42981 | 1.42424 | – | – | –
[2], x2 = 0.923 | 1.43844 | 1.43304 | 1.42748 | – | – | –

ClCCCCl [1,3-dichloropropane] + C[N+](=O)[O-]
Settings | refractive index, 298.15 K | refractive index, 308.15 K | refractive index, 318.15 K | speed of sound, 298.15 K [m/s] | speed of sound, 308.15 K [m/s] | speed of sound, 318.15 K [m/s]
[1], x1 = 0.0878 | – | – | – | 1303 | 1264 | 1225
[1], x1 = 0.1939 | – | – | – | 1285.9 | 1247.3 | 1208.9
[1], x1 = 0.2938 | – | – | – | 1273.6 | 1235.4 | 1197.3
[1], x1 = 0.3998 | – | – | – | 1263.5 | 1225.6 | 1187.8
[1], x1 = 0.5028 | – | – | – | 1255.9 | 1218.2 | 1180.7
[1], x1 = 0.6154 | – | – | – | 1249.4 | 1212 | 1174.8
[1], x1 = 0.7207 | – | – | – | 1244.7 | 1207.5 | 1170.5
[1], x1 = 0.8326 | – | – | – | 1240.8 | 1203.8 | 1167
[1], x1 = 0.9404 | – | – | – | 1237.9 | 1201 | 1164.4
[1], x1 = 1 | – | – | – | 1236.5 | 1199.7 | 1163.2
[2], x1 = 0.0878 | 1.38808 | 1.38325 | 1.37861 | – | – | –
[2], x1 = 0.1939 | 1.39757 | 1.39278 | 1.38807 | – | – | –
[2], x1 = 0.2938 | 1.40567 | 1.40095 | 1.39632 | – | – | –
[2], x1 = 0.3998 | 1.41335 | 1.40869 | 1.40422 | – | – | –
[2], x1 = 0.5028 | 1.42017 | 1.41551 | 1.41092 | – | – | –
[2], x1 = 0.6154 | 1.42699 | 1.42236 | 1.41782 | – | – | –
[2], x1 = 0.7207 | 1.43278 | 1.42826 | 1.4234 | – | – | –
[2], x1 = 0.8326 | 1.43844 | 1.43358 | 1.42879 | – | – | –
[2], x1 = 0.9404 | 1.44348 | 1.43846 | 1.43349 | – | – | –
[2], x1 = 1 | 1.44617 | 1.44123 | 1.43614 | – | – | –
